EC50 data for 7 molecules are collected here from PubChem BioAssay AID493202 (Sanford-Burnham Center for Chemical Genomics, 2011).

One may read the EC50 as the concentration that produces a half-maximal response.

Calls of active or inactive are those of the source.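 Rule for the calls: active = mean EC50 below 10 µM; inactive = the rest.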

The target in the assay is Type-1 angiotensin II receptor (Homo sapiens) (UniProt P30556). The experiment in a line: AGTR1 activation selectivity check – cell-based, CHO-K1 PathHunter, luminescence, set 4, selectivity assay for APJ agonist project, SAR follow-up (AID 493202). The settings on record: CHO-K1 AGTR1 PathHunter beta-arrestin, 90 min.
Type-1 angiotensin II receptor (Homo sapiens), sequence (P30556 whole entry, looked up): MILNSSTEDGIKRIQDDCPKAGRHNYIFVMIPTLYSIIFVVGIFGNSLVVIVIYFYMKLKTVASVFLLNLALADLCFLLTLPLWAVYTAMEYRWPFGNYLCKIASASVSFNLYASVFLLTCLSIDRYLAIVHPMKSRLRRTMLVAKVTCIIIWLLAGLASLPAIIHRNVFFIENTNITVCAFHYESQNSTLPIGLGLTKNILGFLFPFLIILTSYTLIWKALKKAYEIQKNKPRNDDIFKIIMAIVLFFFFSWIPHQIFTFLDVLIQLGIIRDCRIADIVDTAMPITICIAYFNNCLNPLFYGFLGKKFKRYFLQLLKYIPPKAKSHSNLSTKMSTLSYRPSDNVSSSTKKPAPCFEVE
As to `Cc1cc(O)c(C(C)C)cc1NS(=O)(=O)c1ccccc1`, the EC50 is > 79 µM (inactive).

With `CC1=CC(=O)C(C(C)C)=C/C1=N/OS(=O)(=O)c1ccc(OC(F)(F)F)cc1`, the EC50 was > 79 µM (inactive).

With `COC(=O)c1cc(NS(=O)(=O)c2ccccc2)ccc1O`, the EC50 was > 79 µM (inactive).

For the molecule `CC1=CC(=O)C(C(C)C)=C/C1=N/OS(=O)(=O)c1ccc(C(C)(C)C)cc1`, the EC50 is > 79 µM (inactive).

`CC1=CC(=O)C(C(C)C)=C/C1=N/OS(=O)(=O)c1cccnc1`: the EC50 was > 79 µM (inactive).

Take `O=S(=O)(Nc1cc(Cl)c(O)c(Cl)c1)c1ccccc1`: the EC50 was > 79 µM (inactive).

Consider `CC1=CC(=O)C(C(C)C)=C/C1=N/OS(=O)(=O)c1ccc(C(F)(F)F)cc1`, for which the EC50 is > 79 µM (inactive).
